Assay results published in patent US4774242A, “Tetrahydrobenz(c,d)indoles and pharmaceutical use” (Roussel Uclaf, priority 1986, dated 1988).

How the values were obtained:
[1] = Study of the acute toxicity (LD0); type: in vivo; conditions: oral, mice, maximal dose not causing any mortality over 8 days
Description: The lethal doses LD0 of the different compounds tested was evaluated after oral administration in mice and the maximal dose not causing any mortality over 8 days was called the LD0.

dopaminergic receptors = target: T1, dopaminergic receptors (Rattus norvegicus, UniProt P61169); test: Affinities for the dopaminergic receptors (displacement of spiroperidol 3H, rat striated bodies); type: binding; conditions: rat striatum, relative to haloperidol = 100, from concentrations inhibiting 50% of specific fixation
T1 construct: Striated bodies removed from the brains of 6 male rats; from tissue; host or cells: rat striatum (striated bodies), membrane fraction
T1 sequence (P61169 whole entry): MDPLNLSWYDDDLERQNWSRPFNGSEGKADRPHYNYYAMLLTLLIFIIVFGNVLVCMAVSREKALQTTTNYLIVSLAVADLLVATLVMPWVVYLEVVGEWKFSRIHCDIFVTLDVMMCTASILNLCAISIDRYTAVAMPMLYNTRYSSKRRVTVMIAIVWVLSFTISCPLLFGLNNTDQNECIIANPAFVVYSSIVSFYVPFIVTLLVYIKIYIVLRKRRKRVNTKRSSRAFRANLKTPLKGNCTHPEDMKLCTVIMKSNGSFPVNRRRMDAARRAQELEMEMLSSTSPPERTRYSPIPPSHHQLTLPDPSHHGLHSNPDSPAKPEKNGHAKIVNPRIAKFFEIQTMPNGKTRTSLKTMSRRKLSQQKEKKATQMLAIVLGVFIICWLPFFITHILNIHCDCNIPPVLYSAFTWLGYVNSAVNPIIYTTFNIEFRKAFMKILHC
Description: Striated bodies removed from the brains of 6 male rats weighing an average of 150 g were homogenized at one-twentieth (weight/volume) in 0.32M sucrose. After centrifuging the homogenized mixture at 1000 g for 10 minutes at 0° C., the supernatant was centrifuged at 30,000 g for 15 minutes at +4° C. The residue was taken up in 25 ml of Tris HCl 50 mM pH 7.7 buffer and centrifuged at 30,000 g for 15 minutes at +4° C. The new residue was taken up in 50 ml of Krebs Tris HCl pH 7.3 buffer and the suspension was pre-incubated for 10 minutes at 37° C. Then it was incubated for 29 minutes on a water-bath at +37° C. in the presence of spiroperidol ^3 H alone, with an excess of haloperidol, and with increasing concentrations of the test product. The incubated suspensions were filtered on Whatman GF/C and the filters were washed three times with 5 ml of Tris HCl 50 mM buffer. The radioactivity of the filters is measured by liquid scintillation. The non-specific fixation was determined in parallel by incubation of spiroperidol ^3 H in the presence of an excess of haloperidol. The affinity of the product tested for the dopaminergic receptors is given relative to haloperidol as reference product,
CD=concentration of cold haloperidol inhibiting 50% of the specific fixation of the spiroperidol ^3 H,
CX=concentration of the product under test inhibiting 50% of the specific fixation of the piroperidol ^3 H.
The relative affinity was determined by the relation: [formula]

arterial pressure = test: Determination of hypotensive activity (carotid arterial pressure, anesthetized rats); type: in vivo, male rats of WISTAR strain; conditions: 0.01 mg/kg intravenous, anesthetized male Wistar rats
Description: The hypotensive activity was studied in male rats of WISTAR strain weighing about 300 g and anesthetized with nembutal (50 mg/kg by intraperitoneal route). The test product was administered intravenously in the jugular vein. The arterial pressure in the carotid was measured before and after administration of the test product. The following table indicates the variations expressed in percentage of the arterial pressure after administration of the product under test relative to the initial control arterial pressure.

enolase γγ = test: Antianoxic activity: enolase test (kainic acid lesions); type: in vivo; conditions: intraperitoneal, upwards of a dose of 1 mg/kg, 1 hour after kainic acid, mice
Description: Suffering cerebral cells release enolase γγ which is a specific indicator of neuronal lesions. In the test, the lesions were carried out in mice by subcutaneous injection of 35/mg/kg of kainic acid.

With `c1cc2c3c(c[nH]c3c1)[C@H]1OCCN[C@@H]1C2` (relative stereo) [Example 2, (dl-trans) 2,6,6a,7,8,9,10a-hexahydro-6H-indol-[4,3-g,h]-1,4-benzoxazine] as the molecule, how does the LD0 [1] read?
The LD0 was greater than 200 mg/kg.

What about the “Relative affinity (Haloperidol = 100)” value (dopaminergic receptors) of the same molecule?
Its value is 0.09.

Which results are given for `CCCN1CCO[C@@H]2c3c[nH]c4cccc(c34)C[C@H]21` (relative stereo) [Example 3, (dl-trans) 2,6a,7,8,9,10a-hexahydro-7-propyl-6H-indol-[4,3-g,h]-1,4-benzoxazine]?
LD0 [1]: 100 mg/kg; % Variations of the arterial pressure 5 minutes after administration (arterial pressure): < -40%; Relative affinity (Haloperidol = 100) (dopaminergic receptors): 13; seral concentration of enolase (enolase γγ): reduced the seral concentration of enolase

For `CN1CCO[C@@H]2c3c[nH]c4cccc(c34)C[C@H]21` (relative stereo) [Example 4, (d,l trans) 2,6a,7,8,9,10a-hexahydro-7-methyl 6H-indol-[4,3-g,h]-1,4-benzoxazine], which “Relative affinity (Haloperidol = 100)” value (dopaminergic receptors) is on record?
Its value is 0.4.
